In publication PMC7392643, “Antibiotic fidaxomicin is an RdRp inhibitor as a potential new therapeutic agent against Zika virus” (BMC Medicine, 2020):

Key:
ZIKV RdRp protein = target: T1, ZIKV RdRp protein (Zika virus, UniProt A0A024B7W1); assay: SPR (BIAcore) binding to ZIKV RdRp protein
T1 construct: RdRp (amino acids 272 to 903); His tag (8x histidine) (N); made in house; host or cells: Escherichia coli (Rosetta)
Protocol: (§1) The cDNA fragment of ZIKV (ZG-01 strain) NS5 (amino acids 1 to 903), RdRp (amino acids 272 to 903), or DENV2 NS5 (amino acids 1 to 900) containing an N-terminal His tag sequence was cloned into a pET-30a-mutant vector. For protein expression, the plasmids were transformed into Rosetta™ competent cells (TIANGEN BIOTECH Co., Ltd., Beijing, China), respectively. […] Mass spectrometry was performed by Shanghai Applied Protein Technology Co. Ltd. (Shanghai, China). The concentration of a targeted protein was measured by SDS-PAGE using BSA (Sigma, St. Louis, MO) as a standard.
(§2) Surface plasmon resonance (SPR) experiments were performed in a BIAcore T100 device (BIAcore Inc., Uppsala, Sweden) using CM5 sensor chips (General Electric Company, GE) according to the protocol provided by the manufacturer. Briefly, recombinant ZIKV NS5 protein, RdRp protein, or DENV2 NS5 protein was immobilized on a CM5 chip, respectively. Different concentrations of fidaxomicin or ribavirin were injected at a flow rate of 30 μL/min for 3 min. Subsequently, data were collected for a 3-min association followed by a 20-min dissociation. The chip was regenerated by injecting 10 μL of 15 mM NaOH for 20 s. All procedures were run in 1% DMSO PBS-P20 (GE) as a running buffer. The binding kinetics was analyzed with the software BIAevaluation version 3.1 using a 1:1 Langmuir binding model. The Kd was calculated as previously described.

[1] = target: T2, ZIKV NS5 full-length protein (Zika virus, UniProt A0A024B7W1); assay: SPR (BIAcore) binding to ZIKV NS5 full-length protein
T2 construct: NS5 (amino acids 1 to 903); His tag (8x histidine) (N); made in house; host or cells: Escherichia coli (Rosetta)
T2 sequence (A0A024B7W1 2521-3423): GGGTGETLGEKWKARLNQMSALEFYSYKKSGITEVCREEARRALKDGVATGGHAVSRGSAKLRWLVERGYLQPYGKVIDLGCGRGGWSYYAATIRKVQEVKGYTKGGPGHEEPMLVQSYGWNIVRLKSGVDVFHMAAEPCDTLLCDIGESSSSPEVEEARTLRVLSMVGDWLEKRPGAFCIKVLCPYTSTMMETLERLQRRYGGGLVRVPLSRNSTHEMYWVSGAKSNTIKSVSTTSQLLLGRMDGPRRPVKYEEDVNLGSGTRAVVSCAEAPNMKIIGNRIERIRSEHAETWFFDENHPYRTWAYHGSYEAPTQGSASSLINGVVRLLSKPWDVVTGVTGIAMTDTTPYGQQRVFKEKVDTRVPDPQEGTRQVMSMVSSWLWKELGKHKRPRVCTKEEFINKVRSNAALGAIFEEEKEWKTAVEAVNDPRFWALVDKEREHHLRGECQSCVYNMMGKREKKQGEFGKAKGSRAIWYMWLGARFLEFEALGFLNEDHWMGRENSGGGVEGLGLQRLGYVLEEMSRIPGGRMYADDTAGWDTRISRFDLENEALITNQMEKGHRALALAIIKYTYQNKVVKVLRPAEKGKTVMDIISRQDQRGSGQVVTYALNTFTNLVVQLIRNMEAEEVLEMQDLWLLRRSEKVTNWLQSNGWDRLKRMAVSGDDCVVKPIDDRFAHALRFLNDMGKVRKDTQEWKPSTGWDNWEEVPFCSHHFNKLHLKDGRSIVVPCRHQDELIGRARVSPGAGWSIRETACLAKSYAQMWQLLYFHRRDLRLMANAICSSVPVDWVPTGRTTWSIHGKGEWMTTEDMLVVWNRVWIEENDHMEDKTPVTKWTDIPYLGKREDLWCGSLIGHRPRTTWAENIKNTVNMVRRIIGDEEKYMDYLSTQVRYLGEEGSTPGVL
Protocol: as §1
as §2, with “All procedures were run in 1% DMSO PBS-P20 (GE) as a running buffer.” left out

ZIKV ZG-01 strain [2] = assay: In vitro antiviral assay, plaque assay, ZIKV ZG-01
Protocol: (§3) The anti-ZIKV activity of fidaxomicin and ribavirin was evaluated in vitro by plaque assay. Various cell lines, including SNB19 (6 × 10^4/well, 10% FBS DMEM), A172 (7 × 10^4/well, 10% FBS DMEM), Vero (6 × 10^4/well 10% FBS DMEM), Huh7 (7 × 10^4/well, 10% FBS DMEM), HUVECs (7 × 10^4/well, 15% FBS M199 medium supplemented with 2 mM L-glutamine, 0.02 mg/mL endothelial cell growth supplement, and 0.05 mg/mL heparin), and A549 (6 × 10^4/well, 5% FBS DMEM), were plated in 12-well plates and allowed to attach overnight, followed by infection with ZIKV (ZG-01 strain or MR766 strain, respectively, at indicated MOI) in the presence of different concentrations of fidaxomicin, ribavirin, or vehicle control for 1 h, followed by two washes with 1 × PBS and incubated with fresh medium (without virus) consisting of corresponding concentrations of the compounds for further 48 h. The cell supernatants were collected to quantify ZIKV infection by plaque assay as previously described or by RT-qPCR. […] The anti-DENV activity of fidaxomicin was evaluated in vitro by RT-qPCR.

DENV2 NS5 protein = target: T3, DENV2 NS5 protein (Dengue virus type 2, UniProt P14340); assay: SPR (BIAcore) binding to DENV2 NS5 protein; settings: qualitative
T3 construct: DENV2 NS5 (amino acids 1 to 900); His tag (N); made in house
Protocol: as §1
as §2, with “All procedures were run in 1% DMSO PBS-P20 (GE) as a running buffer.” left out

[3] = test system: suppression of IFN signaling induced by ZIKV NS5; assay: pISRE-Luc luciferase reporter assay in 293T cells; format: cell-based, human; settings: RIG-I(N) driven, 30 h treatment
Protocol: 293T cells were cultured in 24-well plates (~ 1 × 10^5 cells per well) and co-transfected with pISRE-Luc (100 ng) and the plasmid coding for RIG-I (100 ng) together with the ZIKV NS5 plasmid at indicated concentrations. Control pcDNA3.1 vector was added to ensure that the same total amount of DNA was used for each transfection. To normalize for transfection efficiency, 5 ng of the constitutive Renilla luciferase reporter pRL-TK (Promega, San Luis Obispo, CA, USA) was added to each transfection. Six hours after transfection, cells were treated by fidaxomicin at indicated concentration for 30 h, followed by analysis of cell lysates for luciferase activity using the Dual-Luciferase Reporter Assay System Kit (Promega) according to the manufacturer’s protocol.

ZIKV ZG-01 strain [4] = assay: In vitro antiviral assay, RT-qPCR, ZIKV ZG-01; format: cell-based; settings: Zika virus
Protocol: as §3
RNA from cell supernatants or from mouse tissues (brain and testis) was prepared with RaPure Viral RNA/DNA Kit (Magen, Guangzhou, China) according to the manufacturer’s instructions. The first-strand cDNA was synthesized using random hexamer primers with the Revert Aid Reverse Transcription Kit (Thermo Fisher Scientific, Rockford, IL, USA), and real-time PCR was carried out by using LightCycler® 480 Probes Master (2× reaction mix buffer including DNA polymerase) (no. 04887301001, Roche, Basel, Switzerland). Virus concentration was determined by interpolation onto an internal standard curve made up of a 7-point dilution series of in vitro transcribed RNA and tissue weight to quantify ZIKV RNA as copies/gram tissue. Primer sets used for real-time PCR are shown in Additional file 1: Table S1. Reverse transcription and real-time PCR were performed for at least three times.

T1 sequence (A0A024B7W1 2792-3423): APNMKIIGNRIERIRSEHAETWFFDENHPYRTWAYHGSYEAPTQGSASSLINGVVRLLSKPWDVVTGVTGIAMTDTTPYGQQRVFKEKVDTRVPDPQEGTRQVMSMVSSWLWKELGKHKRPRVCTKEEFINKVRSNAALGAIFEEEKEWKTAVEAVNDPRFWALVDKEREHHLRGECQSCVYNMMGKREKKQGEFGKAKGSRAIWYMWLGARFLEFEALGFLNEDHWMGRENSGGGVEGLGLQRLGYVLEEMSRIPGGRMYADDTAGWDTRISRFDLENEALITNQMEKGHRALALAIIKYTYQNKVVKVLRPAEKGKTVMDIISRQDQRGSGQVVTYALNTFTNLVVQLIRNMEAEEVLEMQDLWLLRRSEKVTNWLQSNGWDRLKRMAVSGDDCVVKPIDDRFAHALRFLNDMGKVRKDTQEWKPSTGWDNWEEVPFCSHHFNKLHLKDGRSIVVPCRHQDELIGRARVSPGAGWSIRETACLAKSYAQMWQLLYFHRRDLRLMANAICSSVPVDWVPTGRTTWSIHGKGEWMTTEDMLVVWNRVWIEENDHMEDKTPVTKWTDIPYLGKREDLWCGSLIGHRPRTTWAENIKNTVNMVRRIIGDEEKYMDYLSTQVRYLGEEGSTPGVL

CCc1c(Cl)c(O)c(Cl)c(O)c1C(=O)O[C@H]1[C@H](O)[C@H](OC)[C@H](OC/C2=C\C=C\C[C@H](O)/C(C)=C/[C@H](CC)[C@@H](O[C@@H]3OC(C)(C)[C@@H](OC(=O)C(C)C)[C@H](O)[C@@H]3O)/C(C)=C/C(C)=C/C[C@@H]([C@@H](C)O)OC2=O)O[C@@H]1C [Fidaxomicin]
Kd (ZIKV RdRp protein): 23.2 µM
binding to ZIKV RdRp protein (SPR) (ZIKV RdRp protein; qualitative): strong, clear binding
Kd [1]: 18.1 µM
EC50 lower than that of ribavirin (ZIKV ZG-01 strain [2]; SNB19 cells): 10 fold
concentration above which ZIKV infection was completely undetectable (ZIKV ZG-01 strain [2]; SNB19 cells, plaque assay): exceeded 18 μM
EC90 (ZIKV ZG-01 strain [2]; SNB19 cells, plaque assay, 48 h): 8.9 ± 0.6 µM
EC50 (ZIKV ZG-01 strain [2]; Zika virus, A549, 48 h): 12.2 ± 3.6 µM
EC90 (ZIKV ZG-01 strain [2]; Zika virus, A549, 48 h, A549 cells, plaque assay, 48 h): 39.5 ± 4.8 µM
EC50 (ZIKV ZG-01 strain [2]; Zika virus, Huh-7, 48 h): 7.7 ± 1.7 µM
EC90 (ZIKV ZG-01 strain [2]; Zika virus, Huh-7, 48 h, Huh7 cells, plaque assay, 48 h): 17.8 ± 3.5 µM
EC50 (ZIKV ZG-01 strain [2]; Zika virus, SNB-19, 48 h): 6 ± 1 µM
EC90 (ZIKV ZG-01 strain [2]; Zika virus, SNB-19, 48 h, SNB19 cells, plaque assay, 48 h): ~9 µM
EC50 (ZIKV ZG-01 strain [2]; Zika virus, Vero, 48 h): 11.7 ± 2.1 µM
EC90 (ZIKV ZG-01 strain [2]; Zika virus, Vero, 48 h, Vero cells, plaque assay): 48.2 ± 5.3 µM
binding to DENV2 NS5 protein (SPR) (DENV2 NS5 protein): affinity
effect on NS5 suppression of ISRE reporter luciferase activity [3]: did not liberate the suppression of IFN signaling
EC50 (ZIKV ZG-01 strain [4]; A 172, A172 cells, viral RNA copy number by RT-qPCR): 8.8 ± 1.9 µM
EC90 (ZIKV ZG-01 strain [4]; A 172, A172 cells, viral RNA copy number by RT-qPCR, read-out: EC90): 11.8 ± 1.4 µM
EC90 (ZIKV ZG-01 strain [4]; HUVEC): 23.2 ± 3 µM
EC50 (ZIKV ZG-01 strain [4]; HUVEC, HUVECs, viral RNA copy number by RT-qPCR): 14.5 ± 1.2 µM
EC50 (ZIKV ZG-01 strain [4]; Huh-7, Huh7 cells, viral RNA copy number by RT-qPCR): 11.1 ± 1.6 µM
EC90 (ZIKV ZG-01 strain [4]; Huh-7, Huh7 cells, viral RNA copy number by RT-qPCR, read-out: EC90): 21.6 ± 1 µM
EC50 (ZIKV ZG-01 strain [4]; SNB-19, SNB19 cells, viral RNA copy number by RT-qPCR): 9.2 ± 2.4 µM
EC90 (ZIKV ZG-01 strain [4]; SNB-19, SNB19 cells, viral RNA copy number by RT-qPCR, read-out: EC90): 17.3 ± 4.8 µM
EC50 (ZIKV ZG-01 strain [4]; A549 cells, viral RNA copy number by RT-qPCR): 13 ± 3.3 µM
EC90 (ZIKV ZG-01 strain [4]; A549 cells, viral RNA copy number by RT-qPCR, read-out: EC90): 17.8 ± 5.3 µM
EC50 (ZIKV ZG-01 strain [4]; Vero cells, viral RNA copy number by RT-qPCR): 12.5 ± 2.2 µM
EC90 (ZIKV ZG-01 strain [4]; Vero cells, viral RNA copy number by RT-qPCR, read-out: EC90): 52.1 ± 5.5 µM
